Data taken from ChEMBL document CHEMBL1138215, “Aminodeoxychorismate synthase inhibitors from one-bead one-compound combinatorial libraries: "staged" inhibitor design” (J Med Chem, 2006).
Calls of active or inactive are those of the source. No cut-off for these calls is given here.

Key:
[1] = target: 4-amino-4-deoxychorismate synthase (Escherichia coli); test: Inhibition of ADCS
[2] = test system: 4-amino-4-deoxychorismate synthase ADCS/PabB (Escherichia coli); test: Inhibition of ADCS

Structure (SMILES) | Ki [1] | Activity [2]
Cc1ccc(C(=O)N[C@@H](CCCCNC(=O)c2cccc(OCC(=O)O)c2)C(=O)N[C@@H](Cc2cccc(Cl)c2)C(N)=O)c([N+](=O)[O-])c1O | 770 µM | 
CC(C(=O)N[C@@H](CCCCNC(=O)c1cccc(OCC(=O)O)c1)C(=O)NCCc1cccc2c1oc1c(CCC(=O)NCCOCCOCCNC(=O)CCC(=O)N3CCN(CC(N)=O)CC3)cccc12)c1ccc([N+](=O)[O-])cc1 (some centres undefined) | 1400 µM | 
Cc1ccc(C(=O)N[C@@H](CCCCNC(=O)c2cccc(OCC(=O)O)c2)C(=O)N[C@@H](Cc2cccc(Cl)c2)C(=O)NCCOCCOCCNC(=O)CCC(=O)N2CCN(CC(N)=O)CC2)c([N+](=O)[O-])c1O | 1500 µM | 
Cc1ccc(C(=O)N[C@@H](CCCCNC(=O)c2cccc(OCC(=O)O)c2)C(=O)NCC(C(N)=O)C2CCCCC2)c([N+](=O)[O-])c1O (some centres undefined) | 1700 µM | 
CC(C(=O)N[C@@H](CCCCNC(=O)c1cccc(OCC(=O)O)c1)C(=O)NCCc1cccc2c1oc1c(CCC(N)=O)cccc12)c1ccc([N+](=O)[O-])cc1 (some centres undefined) | 360 µM | 
O=C(O)CNc1cc(C(=O)O)ccc1F | 3000 µM | 
O=C(O)CCNc1ccc(C(=O)O)cc1 | 13000 µM | 
O=C(O)COc1cccc(C(=O)O)c1 | 37000 µM | 
O=C(O)c1ccc(=O)oc1 | 2000 µM | 
NC(=O)C1(NC(=O)[C@H](CCCCNC(=O)c2cccc(OCC(=O)O)c2)NC(=O)c2cc(O)cc(O)c2)CCCCC1 | 1100 µM | 
CC(=O)N[C@@H](CCCCNC(=O)c1cccc(OCC(=O)O)c1)C(N)=O | 31000 µM | 
O=C(O)COc1ccc(C(=O)O)cc1 | 100000 µM | 
Cc1ccc(C(=O)N[C@@H](CCCCNC(=O)c2cccc(OCC(=O)O)c2)C(=O)N[C@@H](Cc2ccc(C#N)cc2)C(N)=O)c([N+](=O)[O-])c1O | 540 µM | 
NC(=O)c1cccc(OCC(=O)O)c1 | 32000 µM | 
O=C(O)CCC1=CC(CCC(=O)O)CCC1=O (centres undefined) |  | inactive
NC(=O)C1(NC(=O)[C@H](CCCCNC(=O)c2cccc(OCC(=O)O)c2)NC(=O)c2ncccc2C(=O)c2ccccc2)CCCCC1 | 3900 µM | 
CC(=O)N[C@@H](CCCCNCc1cccc(OCC(=O)O)c1)C(N)=O | 38000 µM | 
COc1cccc(OC)c1C(=O)N[C@@H](CCCCNC(=O)c1cccc(OCC(=O)O)c1)C(=O)N[C@@H](Cc1ccc([N+](=O)[O-])c(O)c1)C(N)=O | 720 µM | 
NC(=O)C1(NC(=O)[C@H](CCCCNC(=O)c2cccc(OCC(=O)O)c2)NC(=O)c2ccc(Oc3ccccc3)cc2)CCS(=O)(=O)CC1 | 710 µM | 
